{"source": "patent US8088819B2", "about": "“Derivatives of substituted 3-phenyl-1-(phenylthienyl)propan-1-ones and of 3-phenyl-1-(phenylfuranyl) propan-1-ones, preparation and use” (priority 2006, dated 2012)", "key": {"C57Bl6 mouse": {"test_system": "C57Bl6 mouse", "assay": "Plasma cholesterol assays and lipoprotein distribution in the C57Bl6 mouse (compounds 4 and 7)", "type": "in vivo", "conditions": "for lipid profile: C57Bl6 mice treated for 14 days; for plasma HDL-cholesterol levels / plasma total cholesterol levels / plasma HDL-cholesterol level (distribution of cholesterol in the plasma lipoprotein fractions): C57Bl6 mouse, 14 days; for plasma HDL-cholesterol levels / plasma total cholesterol levels: 50 mpk oral; for plasma HDL-cholesterol level (distribution of cholesterol in the plasma lipoprotein fractions): 50 mpk", "method": "The effect of the compounds according to the invention was evaluated in vivo in the C57Bl6 mouse after 14 days of treatment by the oral route. At the end of the treatment, the distribution of cholesterol in the various plasma lipoprotein fractions was determined. This was compared with the profile obtained in the control animals (not treated with the compounds according to the invention). The effect of the compounds according to the invention was evaluated in the C57Bl6 mouse by measuring the plasma levels of total cholesterol and of HDL-cholesterol after 14 days of treatment by the oral route. These levels were compared with those obtained with control animals (not treated with the compounds according to the invention). The measured difference provides evidence of the antilipemic effect of the compounds according to the invention.\nFemale C57Bl6 mice were kept under a cycle of light and darkness of 12/12 hours at a constant temperature of 20±3° C. After acclimation for one week, the mice were weighed and put into groups of 6 animals selected so that the distribution of their body weight, of their plasma lipid levels and of total cholesterol determined for the first time before the experiment, is uniform. The test compounds were suspended in carboxymethylcellulose (Sigma C4888) and administered by intragastric force feeding, at a rate of once per day for 14 days at the chosen dose. The animals had free access to water and to food (standard diet). At the end of the experiment, the animals were anesthetized after fasting for 4 hours, a blood sample was taken using anticoagulant (EDTA), then the mice were weighed and euthanased. The plasma was separated by centrifugation at 3000 rev/min for 20 minutes, and the samples were stored at +4° C.\nThe plasma concentrations of total cholesterol were measured by enzyme assays (bioMérieux-Lyon-France) following the supplier's recommendations.\nThe low-density lipoproteins (VLDL and LDL) were precipitated with phosphotungstate. The precipitate was removed by centrifugation. The HDL-cholesterol present in the supernatant was quantified by enzyme assays (bioMérieux-Lyon-France) following the supplier's recommendations.\nThe various lipid fractions (VLDL, LDL, HDL) of the plasma were separated by gel filtration chromatography. The concentrations of cholesterol were then measured in each fraction by enzyme assays (bioMérieux-Lyon-France) following the supplier's recommendations."}, "[1]": {"test_system": "MCP1 secretion in human monocytes (THP1)", "assay": "MCP1 secretion by human monocytes stimulated with PMA (ELISA)", "type": "cell-based", "conditions": "at 1 μm, 24 h", "method": "The antiinflammatory effects of the compounds according to the invention were evaluated by measuring the secretion and expression of macrophages chemoattractant protein (MCP1) and of matrix metalloproteinase 9 (MMP9) by monocytes treated with the compounds according to the invention for 24 hours and stimulated with PMA (phorbol 12-myristate 13-acetate, which causes an inflammatory response of the cells). The more the amount of MCP1 secreted is reduced, the greater the inhibitory action of the compounds according to the invention on the inflammatory reaction. […]\nThe treatment medium is recovered and the concentration of MCP1 is measured using the ELISA kit “Human MCP1 Elisa set” (BD OptEIA; 555179) following the manufacturer's recommendations.\nA human antiMCP1 monoclonal antibody is fixed on a plate, then the supernatants, containing the MCP1 secreted by the cells, are distributed. […] A third antibody, conjugated and coupled to a peroxidase enzyme, makes it possible, in the presence of substrate, to initiate an enzymatic reaction, the result of which is a coloration that is proportional to the amount of MCP1 fixed, and can be measured by spectrophotometry. […]\nThe induction factor, i.e. the ratio of the signal induced by the compound according to the invention to the signal of the control group, was then calculated. […]"}}}
{"smiles": "CC(C)(Oc1ccc(CCC(O)c2ccc(-c3ccc(C(F)(F)F)cc3)s2)c(Cl)c1Cl)C(=O)O", "note": "(stereo not shown) [Compound 4, 2-(2,3-dichloro-4-(3-hydroxy-3-(5-(4-(trifluoromethyl)phenyl)thien-2-yl)propyl)phenoxy)-2-methylpropanoic acid]", "values": [{"measurement": "lipid profile", "setting": "C57Bl6 mouse", "value": "improve"}, {"measurement": "plasma HDL-cholesterol levels", "setting": "C57Bl6 mouse", "value": "significantly increased"}, {"measurement": "plasma total cholesterol levels", "setting": "C57Bl6 mouse", "value": "significantly increased"}, {"measurement": "plasma HDL-cholesterol level (distribution of cholesterol in the plasma lipoprotein fractions)", "setting": "C57Bl6 mouse", "value": "increased"}]}
{"smiles": "CC(C)(Oc1ccc(CCC(OCc2ccccc2)c2ccc(-c3ccc(C(F)(F)F)cc3)s2)c(Cl)c1Cl)C(=O)O", "note": "(stereo not shown) [Compound 7, 2-(4-(3-(benzyloxy)-3-(5-(4-(trifluoromethyl)phenyl)thien-2-yl)propyl)-2,3-dichlorophenoxy)-2-methylpropanoic acid]", "values": [{"measurement": "secretion of MCP1 in human monocytes", "setting": "[1]", "value": "significant decrease"}, {"measurement": "lipid profile", "setting": "C57Bl6 mouse", "value": "improve"}, {"measurement": "plasma HDL-cholesterol levels", "setting": "C57Bl6 mouse", "value": "nonsignificant increase"}, {"measurement": "plasma total cholesterol levels", "setting": "C57Bl6 mouse", "value": "significantly increased"}, {"measurement": "plasma HDL-cholesterol level (distribution of cholesterol in the plasma lipoprotein fractions)", "setting": "C57Bl6 mouse", "value": "increased"}]}
{"smiles": "CC(C)(Oc1ccc(CCC(=O)c2cc(-c3ccc(C(F)(F)F)cc3)cs2)c(Cl)c1Cl)C(=O)O", "note": "[Compound 11, 2-(2,3-dichloro-4-(3-oxo-3-(4-(4-(trifluoromethyl)phenyl)thien-2-yl)propyl)phenoxy)-2-methylpropanoic acid]", "values": [{"measurement": "secretion of MCP1 in human monocytes", "setting": "[1]", "value": "significant decrease"}]}
